From PMC5472308, “Characterization of the regulation of a plant polysaccharide utilization operon and its role in biofilm formation in Bacillus subtilis” (PLoS ONE, 2017)

Target: T1, LacZ (Escherichia coli, UniProt P00722)
T1 construct: lacZ reporter of plasmid pDG268 (PganS-lacZ at amyE) expressed in B. subtilis YC1074 (ganR R20H, ganA deleted); cleared sonicated lysate
Type: biochemical
Conditions: 2.5 mM ONPG; Z buffer; qualitative

T1 sequence (P00722 2-1024): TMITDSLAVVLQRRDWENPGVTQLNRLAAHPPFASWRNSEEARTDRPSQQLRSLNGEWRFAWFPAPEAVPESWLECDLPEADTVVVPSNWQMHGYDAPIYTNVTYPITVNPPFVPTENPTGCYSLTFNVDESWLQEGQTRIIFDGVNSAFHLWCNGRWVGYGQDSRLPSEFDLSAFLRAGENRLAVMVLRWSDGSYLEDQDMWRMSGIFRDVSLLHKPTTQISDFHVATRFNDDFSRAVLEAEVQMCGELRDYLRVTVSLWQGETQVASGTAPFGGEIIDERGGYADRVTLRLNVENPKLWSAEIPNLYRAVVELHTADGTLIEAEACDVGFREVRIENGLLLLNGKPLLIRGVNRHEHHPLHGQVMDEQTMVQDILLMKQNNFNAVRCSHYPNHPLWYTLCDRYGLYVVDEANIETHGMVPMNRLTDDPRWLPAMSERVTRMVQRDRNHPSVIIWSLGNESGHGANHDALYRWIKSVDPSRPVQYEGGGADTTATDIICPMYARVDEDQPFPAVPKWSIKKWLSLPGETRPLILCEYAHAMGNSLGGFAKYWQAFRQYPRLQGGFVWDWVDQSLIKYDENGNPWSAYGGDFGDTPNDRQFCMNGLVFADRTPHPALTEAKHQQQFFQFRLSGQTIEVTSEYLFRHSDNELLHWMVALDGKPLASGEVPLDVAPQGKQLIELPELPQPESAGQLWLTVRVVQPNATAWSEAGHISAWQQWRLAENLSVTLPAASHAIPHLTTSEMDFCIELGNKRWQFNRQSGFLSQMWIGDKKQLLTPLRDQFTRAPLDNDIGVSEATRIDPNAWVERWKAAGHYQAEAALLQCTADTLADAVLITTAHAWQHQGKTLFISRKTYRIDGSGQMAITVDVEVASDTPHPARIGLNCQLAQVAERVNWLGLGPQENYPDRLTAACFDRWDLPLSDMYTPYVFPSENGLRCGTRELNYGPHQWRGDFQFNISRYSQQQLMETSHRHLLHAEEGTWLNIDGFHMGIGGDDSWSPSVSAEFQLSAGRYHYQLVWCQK

Compound: OC[C@H]1OC(O)[C@H](O)[C@@H](O)[C@H]1O (stereo partly shown) [galactose]
- % activity with 2.5-20 mM galactose: we only observed very weak inhibition of catalytic activities of LacZ
